Results taken from patent EP4745137A1 (Gluetacs Therapeutics (Shanghai) Co., Ltd., priority 2023, dated 2025).

Key:
WEE1 = target: T1, WEE1 (Homo sapiens, UniProt P30291+Q96SW2); assay: Western-blot assay of substrate protein degradation in hPBMCs, WEE1; format: cell-based; details: 24 hours of compound treatment, 50 nM and 500 nM tested (concentration behind the class not stated)
T1 construct: endogenous in cells; host or cells: hPBMCs (Milecell Biotechnologies)

IKZF1 = target: T2, IKZF1 (Homo sapiens, UniProt Q13422+Q96SW2); assay: Western-blot assay of substrate protein degradation in hPBMCs, IKZF1; format: cell-based; details: 24 hours of compound treatment, 50 nM and 500 nM tested (concentration behind the class not stated)
T2 construct: endogenous in cells; host or cells: hPBMCs (Milecell Biotechnologies)

IKZF2 = target: T3, IKZF2 (Homo sapiens, UniProt Q96SW2+Q9UKS7); assay: Western-blot assay of substrate protein degradation in hPBMCs, IKZF2; format: cell-based; details: 24 hours of compound treatment, 50 nM and 500 nM tested (concentration behind the class not stated)
T3 construct: endogenous in cells; host or cells: hPBMCs (Milecell Biotechnologies)

IKZF3 = target: T4, IKZF3 (Homo sapiens, UniProt Q96SW2+Q9UKT9); assay: Western-blot assay of substrate protein degradation in hPBMCs, IKZF3; format: cell-based; details: 24 hours of compound treatment, 50 nM and 500 nM tested (concentration behind the class not stated)
T4 construct: endogenous in cells; host or cells: hPBMCs (Milecell Biotechnologies)

CK1α = target: T5, CK1α (Homo sapiens, UniProt P48729+Q96SW2); assay: Western-blot assay of substrate protein degradation in hPBMCs, CK1α; format: cell-based; details: 24 hours of compound treatment, 50 nM and 500 nM tested (concentration behind the class not stated)
T5 construct: endogenous in cells; host or cells: hPBMCs (Milecell Biotechnologies)

GSPT1 = target: T6, GSPT1 (Homo sapiens, UniProt P15170+Q96SW2); assay: Western-blot assay of substrate protein degradation in hPBMCs, GSPT1; format: cell-based; details: 24 hours of compound treatment, 50 nM and 500 nM tested (concentration behind the class not stated)
T6 construct: endogenous in cells; host or cells: hPBMCs (Milecell Biotechnologies)

[1] = tested on: Human acute T lymphocytic leukemia cells (Molt-4); assay: Tumor cell proliferation inhibition (CellTiter-Meiluncell Luminescent Cell Viability Assay), Molt-4; details: for inhibition at 0.01 µM: MOLT-4, read-out: Inhibition rate (%) at 10 nM; for inhibition at 0.5 µM: MOLT-4, read-out: Inhibition rate (%) at 500 nM
CCRF-CEM = assay: Tumor cell proliferation inhibition (CellTiter-Meiluncell Luminescent Cell Viability Assay), CCRF-CEM; details: Homo sapiens; for inhibition at 0.01 µM: read-out: Inhibition rate (%) at 10 nM; for inhibition at 0.5 µM: read-out: Inhibition rate (%) at 500 nM
Method: The tumor cells used herein were cultured in a cell culture medium listed in table 2 at 37°C in an incubator with 5% CO2. Prior to experimentation, all cell lines used were correctly identified by STR profiling, and tested negative for mycoplasma contamination using a mycoplasma detection kit through routine screenings.
(§1) On the following day, the test compounds of the present disclosure were subjected to serial dilution. […] Subsequently, 0.5 µL of the test compound dilution was transferred into the 96-well plate containing the cells, with each well containing 100 µL of cell culture medium. […] Into the 96-well plate, the diluted test compounds and corresponding detection reagents were added, resulting in final test compound concentrations of 500 nM and 10 nM, respectively. The experimental procedure is described below using the diluted 2 µM test compound as an example.
(§2) After the cells were treated with the compounds of the present disclosure for a specified period (the treatment durations were shown in Table 3), the cell viability assay reagent was added to the culture medium according to the kit's instructions to determine cell viability. […] All controls were treated using the same procedure as the compounds of the present disclosure. The growth inhibition curves for the compounds of the present disclosure were plotted using Prism GraphPad software, and the IC50 values were calculated therefrom.

Kasumi-1 = assay: Tumor cell proliferation inhibition (CellTiter-Meiluncell Luminescent Cell Viability Assay), Kasumi-1; details: Homo sapiens; for inhibition at 0.01 µM: Kasumi 1, read-out: Inhibition rate (%) at 10 nM; for inhibition at 0.5 µM: Kasumi 1, read-out: Inhibition rate (%) at 500 nM
Method: as §1, §2

[2] = tested on: Human breast cancer cells (MDA-MB-231); assay: Tumor cell proliferation inhibition (CellTiter-Meiluncell Luminescent Cell Viability Assay), MDA-MB-231; details: for inhibition at 0.01 µM: MDA-MB-231, read-out: Inhibition rate (%) at 10 nM; for inhibition at 0.5 µM: MDA-MB-231, read-out: Inhibition rate (%) at 500 nM

T5 sequence (P48729 whole entry): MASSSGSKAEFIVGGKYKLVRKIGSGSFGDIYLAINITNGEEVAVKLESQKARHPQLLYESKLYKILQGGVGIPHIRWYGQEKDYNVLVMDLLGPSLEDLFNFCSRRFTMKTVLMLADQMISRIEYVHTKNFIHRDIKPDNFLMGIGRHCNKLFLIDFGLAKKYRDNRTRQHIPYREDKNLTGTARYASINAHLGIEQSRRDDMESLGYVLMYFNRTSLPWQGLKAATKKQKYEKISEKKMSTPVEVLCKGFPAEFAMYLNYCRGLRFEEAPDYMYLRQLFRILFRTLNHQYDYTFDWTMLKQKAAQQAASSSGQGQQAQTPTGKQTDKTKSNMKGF
T5 sequence (Q96SW2 whole entry): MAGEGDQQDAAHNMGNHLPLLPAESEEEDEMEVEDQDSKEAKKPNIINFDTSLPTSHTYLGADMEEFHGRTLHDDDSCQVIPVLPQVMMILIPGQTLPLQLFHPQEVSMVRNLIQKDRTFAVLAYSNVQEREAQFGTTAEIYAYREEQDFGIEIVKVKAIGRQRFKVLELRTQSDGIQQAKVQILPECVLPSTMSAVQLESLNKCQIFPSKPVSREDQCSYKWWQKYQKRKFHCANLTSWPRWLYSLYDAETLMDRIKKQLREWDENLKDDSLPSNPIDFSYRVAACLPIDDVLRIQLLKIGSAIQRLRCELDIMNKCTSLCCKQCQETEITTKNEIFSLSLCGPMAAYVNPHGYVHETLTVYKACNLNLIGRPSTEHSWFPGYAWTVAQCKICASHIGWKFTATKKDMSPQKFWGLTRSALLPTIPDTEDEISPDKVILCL
T5 sequence (Q16531 whole entry partner): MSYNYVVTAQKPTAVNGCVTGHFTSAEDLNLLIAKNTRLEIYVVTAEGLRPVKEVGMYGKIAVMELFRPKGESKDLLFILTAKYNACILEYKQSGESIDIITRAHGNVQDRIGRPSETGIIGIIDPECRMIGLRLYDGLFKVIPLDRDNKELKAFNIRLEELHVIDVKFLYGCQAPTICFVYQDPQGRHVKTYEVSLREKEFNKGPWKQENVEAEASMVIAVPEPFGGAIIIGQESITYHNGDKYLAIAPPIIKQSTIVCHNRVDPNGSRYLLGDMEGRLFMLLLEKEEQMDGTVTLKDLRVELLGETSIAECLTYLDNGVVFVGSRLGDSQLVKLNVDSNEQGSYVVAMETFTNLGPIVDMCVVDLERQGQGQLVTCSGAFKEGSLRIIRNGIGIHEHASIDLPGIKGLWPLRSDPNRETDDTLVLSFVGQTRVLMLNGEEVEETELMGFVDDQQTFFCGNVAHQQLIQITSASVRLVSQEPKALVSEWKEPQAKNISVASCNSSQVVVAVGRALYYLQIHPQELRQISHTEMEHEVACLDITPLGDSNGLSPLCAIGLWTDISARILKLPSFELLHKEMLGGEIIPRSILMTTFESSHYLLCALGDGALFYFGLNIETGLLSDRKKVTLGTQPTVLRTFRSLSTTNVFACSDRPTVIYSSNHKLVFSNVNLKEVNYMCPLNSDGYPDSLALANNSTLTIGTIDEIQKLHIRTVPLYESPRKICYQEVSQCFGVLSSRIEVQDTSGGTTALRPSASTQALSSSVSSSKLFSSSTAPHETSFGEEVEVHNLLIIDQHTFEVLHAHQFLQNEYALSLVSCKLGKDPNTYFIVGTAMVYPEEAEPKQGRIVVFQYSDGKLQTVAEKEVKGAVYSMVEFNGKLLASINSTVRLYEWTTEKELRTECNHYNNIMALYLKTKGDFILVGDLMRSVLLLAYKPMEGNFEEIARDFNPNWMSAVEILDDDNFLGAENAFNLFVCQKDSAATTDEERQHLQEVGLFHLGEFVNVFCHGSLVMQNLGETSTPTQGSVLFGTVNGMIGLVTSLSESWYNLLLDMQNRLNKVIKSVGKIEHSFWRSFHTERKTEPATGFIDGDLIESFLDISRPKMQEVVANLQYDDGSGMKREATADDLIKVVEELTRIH
T1 sequence (P30291 whole entry): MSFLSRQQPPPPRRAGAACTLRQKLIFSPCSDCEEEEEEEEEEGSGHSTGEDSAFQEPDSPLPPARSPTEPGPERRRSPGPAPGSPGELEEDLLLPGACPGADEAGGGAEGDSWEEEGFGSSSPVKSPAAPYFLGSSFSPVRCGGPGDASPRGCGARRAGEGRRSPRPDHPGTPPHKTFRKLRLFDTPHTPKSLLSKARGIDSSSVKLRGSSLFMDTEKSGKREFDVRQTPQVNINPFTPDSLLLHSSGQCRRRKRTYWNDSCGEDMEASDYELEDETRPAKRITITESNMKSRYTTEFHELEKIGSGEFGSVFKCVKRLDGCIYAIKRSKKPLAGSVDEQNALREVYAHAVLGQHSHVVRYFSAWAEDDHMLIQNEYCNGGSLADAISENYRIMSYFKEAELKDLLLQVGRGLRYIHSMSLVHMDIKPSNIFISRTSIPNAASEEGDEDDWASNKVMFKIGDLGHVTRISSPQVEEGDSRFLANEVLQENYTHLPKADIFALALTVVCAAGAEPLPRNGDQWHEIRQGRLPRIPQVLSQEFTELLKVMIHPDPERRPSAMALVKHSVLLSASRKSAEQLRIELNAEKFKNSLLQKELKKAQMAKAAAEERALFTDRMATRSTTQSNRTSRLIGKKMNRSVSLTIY
T1 sequence (Q96SW2 whole entry): as the sequence (Q96SW2 whole entry) above
T1 sequence (Q16531 whole entry partner): as the sequence (Q16531 whole entry partner) above
T6 sequence (P15170 whole entry): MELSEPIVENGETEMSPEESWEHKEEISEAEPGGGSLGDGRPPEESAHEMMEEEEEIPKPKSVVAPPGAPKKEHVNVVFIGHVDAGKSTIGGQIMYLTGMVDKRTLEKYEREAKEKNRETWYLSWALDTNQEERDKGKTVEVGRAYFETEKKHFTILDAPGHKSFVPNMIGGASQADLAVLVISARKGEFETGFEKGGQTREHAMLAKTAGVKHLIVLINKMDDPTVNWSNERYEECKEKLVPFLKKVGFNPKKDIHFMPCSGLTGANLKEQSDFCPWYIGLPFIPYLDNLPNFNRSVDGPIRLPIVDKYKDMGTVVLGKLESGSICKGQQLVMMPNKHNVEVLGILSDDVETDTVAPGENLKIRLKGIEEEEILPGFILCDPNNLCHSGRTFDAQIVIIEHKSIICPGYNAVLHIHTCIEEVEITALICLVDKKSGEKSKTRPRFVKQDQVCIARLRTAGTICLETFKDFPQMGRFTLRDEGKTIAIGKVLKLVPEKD
T6 sequence (Q96SW2 whole entry): as the sequence (Q96SW2 whole entry) above
T6 sequence (Q16531 whole entry partner): as the sequence (Q16531 whole entry partner) above
T4 sequence (Q9UKT9 whole entry): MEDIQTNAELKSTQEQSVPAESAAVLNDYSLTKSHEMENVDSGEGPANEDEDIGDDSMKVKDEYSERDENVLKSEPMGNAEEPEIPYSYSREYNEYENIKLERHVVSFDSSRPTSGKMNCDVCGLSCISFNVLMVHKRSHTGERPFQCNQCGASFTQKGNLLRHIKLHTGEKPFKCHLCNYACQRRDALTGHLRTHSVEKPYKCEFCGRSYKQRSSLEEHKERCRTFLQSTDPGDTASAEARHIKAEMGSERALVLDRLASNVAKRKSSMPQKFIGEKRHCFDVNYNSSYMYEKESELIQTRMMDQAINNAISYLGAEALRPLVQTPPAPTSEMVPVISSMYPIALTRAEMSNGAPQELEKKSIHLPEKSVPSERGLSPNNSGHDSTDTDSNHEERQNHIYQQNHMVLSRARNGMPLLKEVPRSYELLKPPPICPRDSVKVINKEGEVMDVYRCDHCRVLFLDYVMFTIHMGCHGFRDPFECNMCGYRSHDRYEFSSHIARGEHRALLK
T4 sequence (Q96SW2 whole entry): as the sequence (Q96SW2 whole entry) above
T4 sequence (Q16531 whole entry partner): as the sequence (Q16531 whole entry partner) above
T2 sequence (Q13422 whole entry): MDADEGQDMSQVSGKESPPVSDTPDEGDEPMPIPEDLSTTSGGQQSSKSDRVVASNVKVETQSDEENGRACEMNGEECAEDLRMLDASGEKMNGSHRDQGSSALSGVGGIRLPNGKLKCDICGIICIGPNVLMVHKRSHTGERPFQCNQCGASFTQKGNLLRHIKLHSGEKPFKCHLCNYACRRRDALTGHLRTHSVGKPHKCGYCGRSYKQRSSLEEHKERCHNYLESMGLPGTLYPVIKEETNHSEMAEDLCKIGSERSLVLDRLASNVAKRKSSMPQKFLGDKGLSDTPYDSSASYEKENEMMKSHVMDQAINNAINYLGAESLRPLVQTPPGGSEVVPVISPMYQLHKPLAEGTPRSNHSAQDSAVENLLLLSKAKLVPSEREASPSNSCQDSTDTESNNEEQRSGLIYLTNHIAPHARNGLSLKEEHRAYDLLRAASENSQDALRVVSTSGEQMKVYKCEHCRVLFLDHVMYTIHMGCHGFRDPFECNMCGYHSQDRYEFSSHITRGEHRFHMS
T2 sequence (Q96SW2 whole entry): as the sequence (Q96SW2 whole entry) above
T2 sequence (Q16531 whole entry partner): as the sequence (Q16531 whole entry partner) above

| SMILES | Weel substrate protein remaining % (WEE1) | IKZF 1 substrate protein remaining % (IKZF1) | IKZF2 substrate protein remaining % (IKZF2) | IKZF3 substrate protein remaining % (IKZF3) | CK1a substrate protein remaining % (CK1α) | GSPT1 substrate protein remaining % (GSPT1) | inhibition at 0.01 µM [1] [%] | inhibition at 0.5 µM [1] [%] | inhibition at 0.01 µM (CCRF-CEM) [%] | inhibition at 0.5 µM (CCRF-CEM) [%] | inhibition at 0.01 µM (Kasumi-1) [%] | inhibition at 0.5 µM (Kasumi-1) [%] | inhibition at 0.01 µM [2] [%] | inhibition at 0.5 µM [2] [%] |
| --- | --- | --- | --- | --- | --- | --- | --- | --- | --- | --- | --- | --- | --- | --- |
| O=C1CCC(N2C(=O)c3ccc(CN4CC=C(c5cccc(Cl)c5Cl)CC4)cc3C2=O)C(=O)N1 (stereo not drawn) [GT-07842, 5-((4-(2,3-dichlorophenyl)-3,6-dihydropyridin-1(2H)-yl)methyl)-2-(2,6-dioxopiperidin-3-yl)isoindoline-1,3-dione] | B (80%< substrate protein remaining %≤ 100%) | A (0% ≤ substrate protein remaining % ≤ 80%) | A (0% ≤ substrate protein remaining % ≤ 80%) | A (0% ≤ substrate protein remaining % ≤ 80%) | B (80%< substrate protein remaining %≤ 100%) | A (0% ≤ substrate protein remaining % ≤ 80%) | 20 to 30 | 80 to 90 | 20 to 30 | 90 to 100 | 30 to 40 | 40 to 50 | 20 to 30 | 20 to 30 |
| O=C1CCC(N2C(=O)c3ccc(CN4CCN(c5nc(N6CCCCC6)nc6c5SCC6)CC4)cc3C2=O)C(=O)N1 (stereo not drawn) [GT-08003, 2-(2,6-dioxopiperidin-3-yl)-5-((4-(2-(piperidin-1-yl)-6,7-dihydrothieno[3,2-d]pyrimidin-4-yl)piperazin-1-yl)methyl)isoindoline-1,3-dione] | B (80%< substrate protein remaining %≤ 100%) | A (0% ≤ substrate protein remaining % ≤ 80%) | A (0% ≤ substrate protein remaining % ≤ 80%) | A (0% ≤ substrate protein remaining % ≤ 80%) | A (0% ≤ substrate protein remaining % ≤ 80%) | A (0% ≤ substrate protein remaining % ≤ 80%) | 20 to 30 | 90 to 100 | 20 to 30 | 90 to 100 | 5 to 10 | 80 to 90 | 30 to 40 | 30 to 40 |
| Nc1cccc2c1CN(C1CCC(=O)NC1=O)C2=O (stereo not drawn) [lenalidomide, reference compound] |  |  |  |  |  |  | 15 to 20 | 10 to 15 | 10 to 15 | 10 to 15 | 5 to 10 | 0 to 5 | 15 to 20 | 10 to 15 |
